Target: MTH1 (Homo sapiens, UniProt P36639)
Assay: MTH1 enzymatic assay and IC50 value determination (malachite green, 96- and 384-well format)
Type: biochemical
Settings: hydrolysis of dGTP (100 μM), MTH1 6 nM, pyrophosphatase-coupled malachite green, 15 minutes at 22° C.
Description: MTH1 Enzymatic Assay and IC50 Value Determination
MTH1 catalyzes the hydrolysis of dGTP to dGMP and PPi. By coupling the reaction to pyrophosphatase added in excess PPi is converted to Pi that can be detected by using the malachite green assay reagent. Two different formats were used for IC50 determinations in the enzymatic assay, 96- and 384-well format. 96-Well Method:
Briefly, the compound to be analyzed is diluted in DMSO in a 1:3 dilution series generating 12 different compound concentrations giving a final DMSO concentration of 1% in the assay well. MTH1 diluted in assay buffer (100 mM Tris-acetate, 40 mM NaCl, 10 mM magnesium acetate, 1 mM DTT and 0.005% Tween 20) fortified with E. coli pyrophosphatase (0.2 U/ml) is added to a final concentration of 6 nM. dGTP diluted in assay buffer is added to a final concentration of 100 μM. The reaction mixture is incubated for 15 minutes at 22° C. To 100 μl reaction mixture, 25 μl Malachite green assay regent (0.095% Malachite green in 17% H2SO4, 1.5% Ammonium molybdate, 0.17% Tween 20) is added, followed by incubation with shaking for 15 minutes at 22° C. The absorbance of the assay plate is read at 630 nm using a Hidex Sense Multilabel plate reader. The IC50 value is determined by fitting a dose response curve to the data points using nonlinear regression analysis and the equation Y=Bottom+(Top−Bottom)/(1+10^((Log IC50−X)*HillSlope)), where Y is the read absorbance at 630 nm and X is log [compound].
The compounds to be tested are nano-dispensed, in 11 concentrations, directly in assay plates, with a final DMSO concentration <1%. The protocol and the reaction mixture are the same as for the 96-well assay, with a total reaction volume of 50 μl/well to which 10 μl of Malachite green reagent is added. All additions to the assay plates are made with multidrop.

SMILES | IC50 [µM]
NC(=O)c1ccc(CCNc2cc(-c3cccc(Cl)c3F)nc(N)n2)cc1 [Example 80, 4-(2-{[2-amino-6-(3-chloro-2-fluorophenyl)pyrimidin-4-yl]amino}ethyl)benzamide] | < 0.2
Cc1c(Cl)cccc1-c1cc(NCCNc2nc(N)nc(N)n2)nc(N)n1 [Example 158, N2-[2-[[2-amino-6-(3-chloro-2-methyl-phenyl)pyrimidin-4-yl]amino]ethyl]-1,3,5-triazine-2,4,6-triamine] | < 0.2
Cc1cccc(-c2cc(NCCNc3nc(N)nc4[nH]cnc34)nc(N)n2)c1C [Example 45, 4-N-{2-[(2-amino-9H-purin-6-yl)amino]ethyl}-6-(2,3-dimethylphenyl)pyrimidine-2,4-diamine] | < 0.2
Cc1c(Cl)cccc1-c1cc(NCCc2ccc(C(=O)O)cc2)nc(N)n1 [Example 9, 4-(2-{[2-amino-6-(3-chloro-2-methylphenyl)pyrimidin-4-yl]amino}ethyl)benzoic acid] | < 0.2
Cc1cc(-c2cc(NCCNc3ccc([N+](=O)[O-])cn3)nc(N)n2)c(C)cc1F [Example 8, 6-(4-fluoro-2,5-dimethylphenyl)-4-N-{2-[(5-nitropyridin-2-yl)amino]ethyl}pyrimidine-2,4-diamine] | < 0.2
Cc1cccc(-c2cc(NCCc3ccc(C(=O)O)cc3)nc(N)n2)c1C [Example 34, 4-(2-{[2-amino-6-(2,3-dimethylphenyl)pyrimidin-4-yl]amino}ethyl)benzoic acid] | < 0.2
Cc1c(Cl)cccc1-c1cc(NCCOc2ccc(-c3nn[nH]n3)cc2)nc(N)n1 [Example 202, 6-(3-chloro-2-methylphenyl)-N4-{2-[4-(2H-1,2,3,4-tetrazol-5-yl)phenoxy]ethyl}pyrimidine-2,4-diamine] | < 0.2
Cc1c(Cl)cccc1-c1cc(NCCn2c([N+](=O)[O-])cnc2C)nc(N)n1 [Example 100, 6-(3-chloro-2-methyl-phenyl)-N4-[2-(2-methyl-5-nitro-imidazol-1-yl)ethyl]pyrimidine-2,4-diamine] | < 0.2
CN1C(=O)COc2ccc(NCCNc3cc(-c4cccc(Cl)c4Cl)nc(N)n3)cc21 [Example 94, 6-[2-[[2-amino-6-(2,3-dichlorophenyl)pyrimidin-4-yl]amino]ethylamino]-4-methyl-1,4-benzoxazin-3-one] | < 0.2
CC(C)C(=O)N1CC=C(c2cc(NCCc3ccc(S(N)(=O)=O)cc3)nc(N)n2)CC1 [Example 136, 4-[2-({2-amino-6-[1-(2-methylpropanoyl)-1,2,3,6-tetrahydropyridin-4-yl]pyrimidin-4-yl}amino)ethyl]benzene-1-sulfonamide] | < 0.2
CC(C)(C)OC(=O)N1CC=C(c2cc(NCCc3ccc(S(C)(=O)=O)cc3)nc(N)n2)CC1 [Example 129, tert-butyl 4-(2-amino-6-{[2-(4-methanesulfonylphenyl)ethyl]amino}pyrimidin-4-yl)-1,2,3,6-tetrahydropyridine-1-carboxylate] | < 0.2
Cc1cccc(-c2cc(NCCNc3cncc(S(N)(=O)=O)c3)nc(N)n2)c1C [Example 14, 5-[(2-{[2-amino-6-(2,3-dimethylphenyl)pyrimidin-4-yl]amino}ethyl)amino]pyridine-3-sulfonamide] | < 0.2
Cc1c(Cl)cccc1-c1cc(NCCc2ccc(C(=N)N)cc2)nc(N)n1 [Example 125, 4-[2-[[2-amino-6-(3-chloro-2-methyl-phenyl)pyrimidin-4-yl]amino]ethyl]benzamidine] | < 0.2
COC(=O)c1cc(C)nc(NCCNc2cc(-c3cccc(C)c3C)nc(N)n2)n1 [Example 50, methyl 2-[(2-{[2-amino-6-(2,3-dimethylphenyl)pyrimidin-4-yl]amino}ethyl)amino]-6-methylpyrimidine-4-carboxylate] | < 0.2
COc1cc(C)c(-c2cc(NCCc3ccc(S(N)(=O)=O)cc3)nc(N)n2)cc1Cl [Example 68, 4-(2-{[2-amino-6-(5-chloro-4-methoxy-2-methylphenyl)pyrimidin-4-yl]amino}ethyl)benzene-1-sulfonamide] | < 0.2
Cc1c(Cl)cccc1-c1cc(NCCc2cccc(NC(=N)N)c2)nc(N)n1 [Example 179, 1-[3-[2-[[2-amino-6-(3-chloro-2-methyl-phenyl)pyrimidin-4-yl]amino]ethyl]phenyl]guanidine] | < 0.2
Cc1ccc(F)cc1-c1cc(NCCc2ccc(S(N)(=O)=O)cc2)nc(N)n1 [Example 71, 4-(2-{[2-amino-6-(5-fluoro-2-methylphenyl)pyrimidin-4-yl]amino}ethyl)benzene-1-sulfonamide] | < 0.2
Cc1cc(Cl)c(Cl)cc1-c1cc(NCCc2ccc(S(N)(=O)=O)cc2)nc(N)n1 [Example 67, 4-(2-{[2-amino-6-(4,5-dichloro-2-methylphenyl)pyrimidin-4-yl]amino}ethyl)benzene-1-sulfonamide] | < 0.2

The remaining lines, values ahead:

IC50 [µM] | SMILES
< 0.2 | Nc1nc(NCCc2ccc(S(N)(=O)=O)cc2)cc(-c2ccc(Cl)c(Cl)c2Cl)n1 [Example 98, 4-[2-[[2-amino-6-(2,3,4-trichlorophenyl)pyrimidin-4-yl]amino]ethyl]benzenesulfonamide]
< 0.2 | Nc1nc(NCCc2ccc(S(N)(=O)=O)cc2)cc(-c2cccc(Cl)c2CO)n1 [Example 218, 4-(2-(2-Amino-6-(3-chloro-2-(hydroxymethyl)phenyl)pyrimidin-4-ylamino)ethyl)benzenesulfonamide]
< 0.2 | Nc1nc(NCCNc2ccc3c(c2)NC(=O)CO3)cc(-c2cccc(Cl)c2)n1 [Example 37, 6-[(2-{[2-amino-6-(3-chlorophenyl)pyrimidin-4-yl]amino}ethyl)amino]-3,4-dihydro-2H-1,4-benzoxazin-3-one]
< 0.2 | CC(=O)Nc1ccc(NCCNc2cc(-c3cc(C)c(F)cc3C)nc(N)n2)nc1 [Example 11, N-{6-[(2-{[2-amino-6-(4-fluoro-2,5-dimethylphenyl)pyrimidin-4-yl]amino}ethyl)amino]pyridin-3-yl}acetamide]
< 0.2 | Nc1nc(NCCc2ccc(S(N)(=O)=O)cc2)cc(-c2csc3ccccc23)n1 [Example 102, 4-[2-[[2-amino-6-(benzothiophen-3-yl)pyrimidin-4-yl]amino]ethyl]benzenesulfonamide]
< 0.2 | Cc1ccc(-c2cc(NCCc3ccc(S(N)(=O)=O)cc3)nc(N)n2)o1 [Example 4, 4-(2-{[2-amino-6-(5-methylfuran-2-yl)pyrimidin-4-yl]amino}ethyl)benzene-1-sulfonamide]
< 0.2 | Nc1nc(NCCc2ccc(S(N)(=O)=O)cc2)cc(-c2cccc(OS(=O)(=O)C(F)(F)F)c2)n1 [Example 33, 3-(2-amino-6-{[2-(4-sulfamoylphenyl)ethyl]amino}pyrimidin-4-yl)phenyl trifluoromethanesulfonate]
< 0.2 | Nc1nc(NCCc2ccc(S(N)(=O)=O)cc2)cc(C2=CCN(C(=O)C3CCCC3)CC2)n1 [Example 139, 4-(2-{[2-amino-6-(1-cyclopentanecarbonyl-1,2,3,6-tetrahydropyridin-4-yl)pyrimidin-4-yl]amino}ethyl)benzene-1-sulfonamide]
< 0.2 | Nc1nc(NCCc2ccc(S(N)(=O)=O)cc2)cc(C2=CCN(C(=O)c3ccno3)CC2)n1 [Example 138, 4-[2-({2-amino-6-[1-(1,2-oxazole-5-carbonyl)-1,2,3,6-tetrahydropyridin-4-yl]pyrimidin-4-yl}amino)ethyl]benzene-1-sulfonamide]
< 0.2 | Cc1c(-c2cc(NCCc3ccc(S(N)(=O)=O)cc3)nc(N)n2)cccc1C(F)(F)F [Example 197, 4-[2-({2-amino-6-[2-methyl-3-(trifluoromethyl)phenyl]pyrimidin-4-yl}amino)ethyl]benzene-1-sulfonamide]
< 0.2 | Cc1c(Cl)cccc1-c1cc(NCCc2ccc(C(N)=O)cc2F)nc(N)n1 [Example 162, 4-[2-[[2-amino-6-(3-chloro-2-methyl-phenyl)pyrimidin-4-yl]amino]ethyl]-3-fluoro-benzamide]
< 0.2 | Cc1c(Cl)cccc1-c1cc(NCCNc2ccc(C(N)=O)cn2)nc(N)n1 [Example 147]
< 0.2 | Cc1ccc(C(=O)N2CC=C(c3cc(NCCc4ccc(S(N)(=O)=O)cc4)nc(N)n3)CC2)cc1 [Example 141, 4-[2-({2-amino-6-[1-(4-methylbenzoyl)-1,2,3,6-tetrahydropyridin-4-yl]pyrimidin-4-yl}amino)ethyl]benzene-1-sulfonamide]
< 0.2 | CSc1ccc(NC(=O)NCCCCNc2cc(-c3cccc(Cl)c3Cl)nc(N)n2)cc1 [Example 6, 3-(4-{[2-amino-6-(2,3-dichlorophenyl)pyrimidin-4-yl]amino}butyl)-1-[4-(methylsulfanyl)phenyl]urea]
< 0.2 | CC(C)(C)OC(=O)N1CC=C(c2cc(NCCc3ccc(S(N)(=O)=O)cc3)nc(N)n2)CC1 [Example 131, tert-butyl 4-(2-amino-6-{[2-(4-sulfamoylphenyl)ethyl]amino}pyrimidin-4-yl)-1,2,3,6-tetrahydropyridine-1-carboxylate]

— patent US10179790B2 (THOMAS HELLEDAYS STIFTELSE FOR MEDICINSK FORSKNING, priority 2014, dated 2019)
